Data taken from patent publication US5098934A, “Method of relieving pain with mercaptoalkanamides” (Roussel Uclaf, priority 1983, dated 1992).

What follows are compounds tested against T1, Enkephalinase (Rattus norvegicus, UniProt P07861) (assay: Inhibition of enkephalinase (rat striatum membrane fraction, tritiated leucine-enkephaline)). Conditions: 20 nanomole tritiated leucine-enkephaline, 1 mM puromycin, 25° C., 15 minutes, pH 7.4, read-out: Enkaphalinase inhibition CI50 (50% inhibitory concentration).
T1 construct: from tissue; host or cells: rat striatum, membrane (particulate) fraction
T1 sequence (P07861 1-750): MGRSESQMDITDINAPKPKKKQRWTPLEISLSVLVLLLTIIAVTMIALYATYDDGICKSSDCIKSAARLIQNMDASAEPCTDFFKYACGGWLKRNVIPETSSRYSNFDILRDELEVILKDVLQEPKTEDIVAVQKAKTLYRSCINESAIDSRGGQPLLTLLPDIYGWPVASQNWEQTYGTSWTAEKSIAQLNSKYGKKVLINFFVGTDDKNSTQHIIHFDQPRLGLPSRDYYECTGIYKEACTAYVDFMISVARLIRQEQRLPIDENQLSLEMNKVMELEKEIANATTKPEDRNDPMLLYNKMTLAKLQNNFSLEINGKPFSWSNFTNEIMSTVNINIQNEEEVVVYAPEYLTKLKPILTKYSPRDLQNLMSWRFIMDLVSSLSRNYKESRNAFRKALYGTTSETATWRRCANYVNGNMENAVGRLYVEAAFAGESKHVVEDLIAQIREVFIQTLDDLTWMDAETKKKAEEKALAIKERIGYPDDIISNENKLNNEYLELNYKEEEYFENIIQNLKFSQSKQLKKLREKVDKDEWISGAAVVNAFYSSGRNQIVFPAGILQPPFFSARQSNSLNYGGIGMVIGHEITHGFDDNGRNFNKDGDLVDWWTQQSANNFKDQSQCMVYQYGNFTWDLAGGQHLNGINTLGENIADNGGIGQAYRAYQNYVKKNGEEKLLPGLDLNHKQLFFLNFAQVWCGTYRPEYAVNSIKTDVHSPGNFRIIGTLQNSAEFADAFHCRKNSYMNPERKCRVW
Type: biochemical, rats
Description: Enkephalinase activity was determined in a striatum membrane fraction of rats. The striatum was placed in ice and was homogenized in buffered 0.05M Tris with a pH of 7.4 (20 times the volume) and after a first centrifugation at 1000 g, the particular fraction obtained was subjected to two centrifugations for 10 minutes at 20,000 g. The culot was then suspended in buffered Tris and kept at 4° C. The amount of proteins was determined by the Comassie blue method.
After preincubation at 25° C. for 15 minutes, an aliquot of proteins was incubated at 25° C. for 15 minutes in the presence of 20 nanomole of tritiated leucine-enkephaline (against the first amino acid) previously purified, of 1 mM of puromycin and the test product in buffered Tris. The hydrolysis reaction was stopped by addition of 0.2N hydrochloric acid and the incubate was subjected to a deproteinization by heating at 95° C. for 15 minutes. Under these conditions, the kinetic reaction was linear. The tritiated metabolites obtained by hydrolysis were separated from enkephaline by chromatography over a column of porapak Q and elution with buffered Tris whereby enkephaline was retained in the column and was released in the following ethanolic phase. The activity of the different products was expressed in 50% inhibitory concentration called CI50 in Table II.

Compound	IC50 [nM]
O=C(Nc1ccc(Cl)cc1)C(CS)Cc1ccccc1 (stereo not drawn) [Example 4, N-(4-chlorophenyl)-α-mercaptomethyl-benzene-propanamide]	1000
O=C(Nc1ccncc1)C(CS)Cc1ccccc1 (stereo not drawn) [Example 30, N-(4-pyridinyl) α-(mercaptomethyl)-benzene-propanamide]	100
COc1ccc(NC(=O)C(CS)Cc2ccccc2)cc1 (stereo not drawn) [Example 36, N-(4-methoxyphenyl) α-(mercaptomethyl)-benzene-propanamide]	50

Now from value to compound:

IC50 [nM]	Compound
10000	CC(=O)SCC(Cc1ccccc1)C(=O)Nc1ccccc1 (stereo not drawn) [Example 1, Ethanethioate of S-[3-oxo-3-phenylamino-2-benzyl-propyl]]
1000	O=C(Nc1ccccc1)C(CS)Cc1ccccc1 (stereo not drawn) [Example 2, α-mercaptomethyl-N-phenyl-benzene propanamide]
1000	CC(=O)SCC(Cc1ccccc1)C(=O)Nc1ccc(Cl)cc1 (stereo not drawn) [Example 3, Ethanethioate of S-[3-(4-chlorophenylamino)-3-oxo-2-benzylpropyl]]
60	COc1cccc(NC(=O)C(CS)Cc2ccccc2)c1 (stereo not drawn) [Example 38, N-(3-methoxyphenyl) α-(mercaptomethyl)-benzene-propanamide]
